From ChEMBL document CHEMBL1134410, “Discovery of novel N-phenylglycine derivatives as potent and selective beta(3)-adrenoceptor agonists for the treatment of frequent urination and urinary incontinence” (J Med Chem, 2001)

Experiments:
Assay type in all cases: functional
[1] = target: Beta-2 adrenergic receptor (Rattus norvegicus, UniProt P10608); assay: Agonistic activity towards beta-2 adrenoceptor. Mean concentration required to produce 50% inhibition of uterine contraction
[2] = Concentration ratio of beta-2 (EC50) to beta3 (EC50)
[3] = target: Beta-1 adrenergic receptor (Rattus norvegicus) (UniProt P18090); assay: Increase in BPM in isolated rat atria.
Beta-1 adrenergic receptor (Rattus norvegicus), sequence (P18090 whole entry, looked up): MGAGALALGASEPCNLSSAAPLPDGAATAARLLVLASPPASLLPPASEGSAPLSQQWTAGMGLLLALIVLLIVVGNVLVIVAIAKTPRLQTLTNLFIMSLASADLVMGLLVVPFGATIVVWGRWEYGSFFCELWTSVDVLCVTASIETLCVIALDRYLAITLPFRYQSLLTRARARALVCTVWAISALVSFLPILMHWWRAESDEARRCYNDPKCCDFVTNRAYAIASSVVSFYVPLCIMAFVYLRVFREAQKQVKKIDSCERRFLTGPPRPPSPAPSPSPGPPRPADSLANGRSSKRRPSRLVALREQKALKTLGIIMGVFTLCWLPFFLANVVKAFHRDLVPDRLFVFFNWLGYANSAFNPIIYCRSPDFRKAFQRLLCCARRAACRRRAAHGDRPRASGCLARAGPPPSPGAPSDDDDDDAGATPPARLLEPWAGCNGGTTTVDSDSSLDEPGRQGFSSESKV

[4] = Concentration ratio of beta-1 (EC50) to beta3 (EC50)
[5] = Concentration ratio of beta2 (EC50) to […]
[6] = Concentration ratio of beta-1 (EC50) to beta-3 (EC50)
Rattus norvegicus [7] = species on record: Rattus norvegicus; assay: In vitro concentration required to produce 50% relaxation of rat detrusor
Rattus norvegicus [8] = assay: In vivo dose required to lower the intrabladder pressure of the anesthetized rat by 50% over that before compound administration
Mustela putorius furo = species on record: Mustela putorius furo; assay: In vitro concentration required to produce 50% relaxation of ferret detrusor

Beta-2 adrenergic receptor, sequence (P10608 whole entry): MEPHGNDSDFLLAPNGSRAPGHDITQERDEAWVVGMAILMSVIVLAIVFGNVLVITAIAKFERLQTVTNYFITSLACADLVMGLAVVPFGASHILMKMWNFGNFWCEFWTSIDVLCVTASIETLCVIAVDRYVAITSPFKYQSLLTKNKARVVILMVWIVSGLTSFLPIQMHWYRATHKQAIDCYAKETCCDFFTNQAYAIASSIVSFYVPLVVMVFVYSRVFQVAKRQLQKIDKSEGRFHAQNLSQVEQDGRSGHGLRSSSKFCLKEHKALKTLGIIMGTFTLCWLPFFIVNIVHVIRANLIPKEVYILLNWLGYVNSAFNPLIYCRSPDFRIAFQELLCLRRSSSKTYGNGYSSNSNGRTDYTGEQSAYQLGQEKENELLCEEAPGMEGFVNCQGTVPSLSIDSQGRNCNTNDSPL

Row | Structure (SMILES) | Selectivity [2] | -Log EC20 [3] | Selectivity [4] | IC50 [1] [nM] | other results
1 | C[C@H](NCCc1cc(Cl)c(N(C)CC(=O)O)c(Cl)c1)[C@H](O)c1ccc(O)cc1 | > 625 | > 4 | > 625 | – | -Log IC50 [1]: > 4
2 | C[C@H](NCCc1ccc(NCC(=O)O)c(Br)c1)[C@H](O)c1ccc(O)cc1 | 2.5 | 5.1 | 14 | 1410 | –
3 | C[C@H](NCCc1ccc(NCC(=O)O)c(Cl)c1)[C@H](O)c1ccc(O)cc1 | – | 5.57 | 2900 | 3310 | Selectivity [5]: 3550
4 | C[C@H](NCCc1ccc(NC(C)(C)C(=O)O)cc1)[C@H](O)c1ccc(O)cc1 | – | 4.96 | – | 11000 | –
5 | C[C@H](NCCc1cc(Cl)c(NCC(=O)O)cc1Cl)[C@H](O)c1ccc(O)cc1 | 21 | 5.89 | 21 | 1290 | –
6 | C[C@H](Cc1ccc(OCC(=O)O)cc1)NC[C@H](O)c1cccc(Cl)c1 | – | – | – | 9.12 | –
7 | C[C@H](NCCc1ccc(N(C)CC(=O)O)c(Cl)c1)[C@H](O)c1ccc(O)cc1 | > 9090 | 4.6 | 2270 | – | -Log IC50 [1]: > 4
8 | C[C@H](NCCc1ccc(NC(C)(C)C(=O)O)cc1Cl)[C@H](O)c1ccc(O)cc1 | 250 | 6.59 | – | 1410 | Selectivity [6]: 46
9 | C[C@H](NCCc1ccc(N(CC(=O)O)CC(=O)O)cc1)[C@H](O)c1ccc(O)cc1 | – | 4.57 | – | 282 | –
10 | C[C@H](NCCc1cc(Cl)c(NCC(=O)O)c(Cl)c1)[C@H](O)c1ccc(O)cc1 | 1000 | 4.54 | 2070 | 14100 | EC50 (Rattus norvegicus [7]): 191 nM; ED50 (Rattus norvegicus [8]): 0.048 mg/kg; EC50 (Mustela putorius furo): 14.1 nM
11 | C[C@H](NCCc1ccc(NCC(=O)O)cc1Cl)[C@H](O)c1ccc(O)cc1 | 8.6 | 6.96 | 15 | 61.7 | –
12 | C[C@H](NCCc1cc(Br)c(NCC(=O)O)c(Br)c1)[C@H](O)c1ccc(O)cc1 | 32 | 4.72 | 235 | 2570 | –
13 | C[C@H](Cc1ccc2c(c1)OC(C(=O)O)(C(=O)O)O2)NC[C@H](O)c1cccc(Cl)c1 | – | 4.77 | – | – | –
14 | CC(C)NCC(O)c1ccc(O)c(O)c1 (configuration not stated) [ISOPROTERENOL] | – | – | – | – | EC50 (Rattus norvegicus [7]): 10 nM; ED50 (Rattus norvegicus [8]): 0.0006 mg/kg
15 | C[C@H](NCCc1ccc(NCC(=O)O)cc1)[C@H](O)c1ccc(O)cc1 | 27 | 5.89 | 54 | 646 | –
16 | C[C@H](NCCc1ccc(N(CC(=O)O)Cc2ccccc2)cc1)[C@H](O)c1ccc(O)cc1 | – | 6.82 | – | 251 | –
17 | C[C@H](NCCc1ccc(NCC(=O)O)c(Cl)c1Cl)[C@H](O)c1ccc(O)cc1 | 3.7 | 6.82 | 0.33 | 1700 | –
18 | C[C@H](NCCc1ccc(NCC(=O)O)c(I)c1)[C@H](O)c1ccc(O)cc1 | 2.7 | 5.27 | 6.6 | 2190 | –
19 | C[C@H](NCCc1ccc(N(C)CC(=O)O)cc1)[C@H](O)c1ccc(O)cc1 | 31 | 5.47 | 65 | 1580 | –
20 | CC(NCCc1ccc(O)cc1)C(O)c1ccc(O)cc1 (configuration not stated) [RITODRINE] | – | 6.8 | – | 24 | –
